Assay results reported in PMC9234962, “Optimization of Peptide Linker-Based Fluorescent Ligands for the Histamine H1 Receptor” (Journal of Medicinal Chemistry, 2022).
Square brackets hold non-standard residues; d marks the D form. Side chains are listed from the residue outwards. Peptide text beside a SMILES is read from it. * marks the point of attachment. X1 = O=C(COc1ccc(/C=C/C2=[N+]3C(=Cc4ccc(-c5cccs5)n4[B-]3(F)F)C=C2)cc1)*; Propanoyl(3-Pip(4-O-2-BnPh)) = O=C(CCN1CCC(Oc2ccccc2Cc2ccccc2)CC1)*; BODIPY(FL) = CC1=CC(C)=[N+]2C1=Cc1ccc(CCC(=O)*)n1[B-]2(F)F; Ahx = NCCCCCC(=O)O; βAla = NCCC(=O)O

Target: Nluc-H1R (Homo sapiens, UniProt P35367)
Sequence (P35367 whole entry): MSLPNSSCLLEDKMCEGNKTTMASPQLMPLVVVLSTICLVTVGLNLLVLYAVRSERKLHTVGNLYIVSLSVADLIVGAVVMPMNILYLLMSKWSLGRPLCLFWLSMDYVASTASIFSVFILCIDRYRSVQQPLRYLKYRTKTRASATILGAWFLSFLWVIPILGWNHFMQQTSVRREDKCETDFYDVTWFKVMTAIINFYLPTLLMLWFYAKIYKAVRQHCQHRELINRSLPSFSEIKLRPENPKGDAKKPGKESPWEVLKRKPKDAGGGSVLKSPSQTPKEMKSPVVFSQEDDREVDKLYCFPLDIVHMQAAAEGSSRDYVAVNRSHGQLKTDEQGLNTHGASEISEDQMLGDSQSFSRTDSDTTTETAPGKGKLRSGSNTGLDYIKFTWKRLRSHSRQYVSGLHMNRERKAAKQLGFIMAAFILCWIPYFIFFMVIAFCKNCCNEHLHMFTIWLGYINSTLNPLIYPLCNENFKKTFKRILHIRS
Experiment: NanoBRET saturation binding assay on Nluc-H1R expressing HEK293T cells
Set-up: expressed in transfected cells
Conditions: saturation binding curves, whole HEK293T cells; for pKD: non-specific with 10 μM mepyramine, mean ± SEM
Source text: Total and non-specific saturation binding curves from NanoBRET saturation binding assay were fitted simultaneously using eq 1: [drawing 4] 1 where Bmax is the maximal specific binding, [B] is the concentration of fluorescent ligand in nM, KD is the equilibrium dissociation constant in nM, M is the slope of the non-specific component, and C is the intercept with the Y axis.

| Compound | Kd [nM] | pKD |
| --- | --- | --- |
| CC(C)[C@H](NC(=O)CCN1CCC(Oc2ccccc2Cc2ccccc2)CC1)C(=O)N[C@@H](C)C(=O)N[C@@H](Cc1ccc(O)cc1)C(=O)NCCC(=O)N[C@@H](CCCCNC(=O)COc1ccc(/C=C/C2=[N+]3C(=Cc4ccc(-c5cccs5)n4[B-]3(F)F)C=C2)cc1)C(N)=O [Compound 31f, (S)-2-((6S,9S,12S)-16-(4-(2-Benzylphenoxy)piperidin-1-yl)-6-(4-hydroxybenzyl)-12-isopropyl-9-methyl-5,8,11,14-tetraoxo-4,7,10,13-tetraazahexadecanamido)-6-(2-(4-((E)-2-(5,5-difluoro-7-(thiophen-2-yl)-5H-5λ^4,6λ^4-di-pyrrolo[1,2-c:2’,1’-f][1,3,2]diazaborinin-3-yl)vinyl)phenoxy)acetamido)hexanamide] ({Propanoyl(3-Pip(4-O-2-BnPh))}-VAY[βAla]K(X1)-NH2) | 11 | 7.96 ± 0.11 |
| C[C@@H](O)[C@H](NC(=O)CCN1CCC(Oc2ccccc2Cc2ccccc2)CC1)C(=O)N[C@@H](CO)C(=O)N[C@@H](Cc1ccc(O)cc1)C(=O)NCCC(=O)N[C@@H](CCCCNC(=O)COc1ccc(/C=C/C2=[N+]3C(=Cc4ccc(-c5cccs5)n4[B-]3(F)F)C=C2)cc1)C(N)=O [Compound 31g, (S)-2-((6S,9S,12S)-16-(4-(2-Benzylphenoxy)piperidin-1-yl)-6-(4-hydroxybenzyl)-12-((R)-1-hydroxyethyl)-9-(hydroxymethyl)-5,8,11,14-tetraoxo-4,7,10,13-tetraazahexadecanamido)-6-(2-(4-((E)-2-(5,5-difluoro-7-(thiophen-2-yl)-5H-5λ^4,6λ^4-dipyrrolo[1,2-c:2’,1’-f][1,3,2]diazaborinin-3-yl)vinyl)phenoxy)acetamido)hexanamide] ({Propanoyl(3-Pip(4-O-2-BnPh))}-TSY[βAla]K(X1)-NH2) | 7 | 8.16 ± 0.12 |
| C[C@H](NC(=O)[C@@H](NC(=O)CCN1CCC(Oc2ccccc2Cc2ccccc2)CC1)[C@@H](C)O)C(=O)N[C@@H](Cc1ccc(O)cc1)C(=O)NCCC(=O)N[C@@H](CCCCNC(=O)COc1ccc(/C=C/C2=[N+]3C(=Cc4ccc(-c5cccs5)n4[B-]3(F)F)C=C2)cc1)C(N)=O [Compound 31h, (S)-2-((6S,9S,12S)-16-(4-(2-Benzylphenoxy)piperidin-1-yl)-6-(4-hydroxybenzyl)-12-((R)-1-hydroxyethyl)-9-methyl-5,8,11,14-tetraoxo-4,7,10,13-tetraazahexadecanamido)-6-(2-(4-((E)-2-(5,5-Difluoro-7-(thiophen-2-yl)-5H-5λ^4,6λ^4-dipyrrolo[1,2-c:2’,1’-f][1,3,2]diazaborinin-3-yl)vinyl)phenoxy)acetamido)hexanamide] ({Propanoyl(3-Pip(4-O-2-BnPh))}-TAY[βAla]K(X1)-NH2) | 6 | 8.23 ± 0.17 |
| CC[C@H](C)[C@H](NC(=O)CCN1CCC(Oc2ccccc2Cc2ccccc2)CC1)C(=O)N[C@@H](CO)C(=O)N[C@@H](CC(N)=O)C(=O)NCCC(=O)N[C@@H](CCCCNC(=O)COc1ccc(/C=C/C2=[N+]3C(=Cc4ccc(-c5cccs5)n4[B-]3(F)F)C=C2)cc1)C(N)=O [Compound 31i, (S)-N1-(3-(((S)-1-Amino-6-(2-(4-((E)-2-(5,5-difluoro-7-(thiophen-2-yl)-5H-5λ^4,6λ^4-dipyrrolo[1,2-c:2’,1’-f][1,3,2]diazaborinin-3-yl)vinyl)phenoxy)acetamido)-1-oxohexan-2-yl)amino)-3-oxopropyl)-2-((S)-2-((2S,3S)-2-(3-(4-(2-benzylphenoxy)piperidin-1-yl)propanamido)-3-methylpentanamido)-3-hydroxypropanamido)succinamide] ({Propanoyl(3-Pip(4-O-2-BnPh))}-ISN[βAla]K(X1)-NH2) | 5 | 8.33 ± 0.09 |
| CC(C)C[C@H](NC(=O)CCN1CCC(Oc2ccccc2Cc2ccccc2)CC1)C(=O)N[C@@H](CO)C(=O)N[C@@H](CC(N)=O)C(=O)NCCC(=O)N[C@@H](CCCCNC(=O)COc1ccc(/C=C/C2=[N+]3C(=Cc4ccc(-c5cccs5)n4[B-]3(F)F)C=C2)cc1)C(N)=O [Compound 31j, (S)-N1-(3-(((S)-1-Amino-6-(2-(4-((E)-2-(5,5-difluoro-7-(thiophen-2-yl)-5H-5λ^4,6λ^4-dipyrrolo[1,2-c:2’,1’-f][1,3,2]diazaborinin-3-yl)vinyl)phenoxy)acetamido)-1-oxohexan-2-yl)amino)-3-oxopropyl)-2-((S)-2-((S)-2-(3-(4-(2-benzylphenoxy)piperidin-1-yl)propanamido)-4-methylpentanamido)-3-hydroxypropanamido)succinamide] ({Propanoyl(3-Pip(4-O-2-BnPh))}-LSN[βAla]K(X1)-NH2) | 6 | 8.23 ± 0.06 |
| CC(C)[C@H](NC(=O)CCN1CCC(Oc2ccccc2Cc2ccccc2)CC1)C(=O)N[C@@H](CO)C(=O)N[C@@H](CC(N)=O)C(=O)NCCC(=O)N[C@@H](CCCCNC(=O)CCCCCNC(=O)COc1ccc(/C=C/C2=[N+]3C(=Cc4ccc(-c5cccs5)n4[B-]3(F)F)C=C2)cc1)C(N)=O [Compound 38a, (S)-N^1-(3-(((S)-1-Amino-6-(6-(2-(4-((E)-2-(5,5-difluoro-7-(thiophen-2-yl)-5H-4λ^4,5λ^4-dipyrrolo[1,2-c:2’,1’-f][1,3,2]diazaborinin-3-yl)vinyl)phenoxy)acetamido)hexanamido)-1-oxohexan-2-yl)amino)-3-oxopropyl)-2-((S)-2-((S)-2-(3-(4-(2-benzylphenoxy)piperidin-1-yl)propanamido)-3-methylbutanamido)-3-hydroxypropanamido)succinamide] ({Propanoyl(3-Pip(4-O-2-BnPh))}-VSN[βAla]K([Ahx-X1])-NH2) | 18 | 7.74 ± 0.06 |
| Cc1cc(C)n2c1C=C1C=CC(CCC(=O)NCCCCCC(=O)NCCCC[C@H](NC(=O)CCNC(=O)[C@H](CC(N)=O)NC(=O)[C@H](CO)NC(=O)[C@@H](NC(=O)CCN3CCC(Oc4ccccc4Cc4ccccc4)CC3)C(C)C)C(N)=O)=[N+]1[B-]2(F)F [Compound 38e, (S)-N^1-(3-(((S)-1-Amino-6-(6-(3-(5,5-difluoro-7,9-dimethyl-5H-4λ^4,5λ^4-dipyrrolo[1,2-c:2’,1’-f][1,3,2]diazaborinin-3-yl)propanamido)hexanamido)-1-oxohexan-2-yl)amino)-3-oxopropyl)-2-((S)-2-((S)-2-(3-(4-(2-benzylphenoxy)piperidin-1-yl)propanamido)-3-methylbutanamido)-3-hydroxypropanamido)succinamide] ({Propanoyl(3-Pip(4-O-2-BnPh))}-VSN[βAla]K([Ahx-BODIPY(FL)])-NH2) | 5250 | 5.28 ± 0.06 |
| C[C@H](NC(=O)[C@H](C)NC(=O)[C@H](Cc1ccccc1)NC(=O)CCN1CCC(Oc2ccccc2Cc2ccccc2)CC1)C(=O)NCCC(=O)N[C@@H](CCCCNC(=O)CCCCCNC(=O)COc1ccc(/C=C/C2=[N+]3C(=Cc4ccc(-c5cccs5)n4[B-]3(F)F)C=C2)cc1)C(N)=O [Compound 39a, N-((5S,8S,11S,18S)-5-Benzyl-1-(4-(2-benzylphenoxy)piperidin-1-yl)-18-carbamoyl-8,11-dimethyl-3,6,9,12,16-pentaoxo-4,7,10,13,17-pentaazadocosan-22-yl)-6-(2-(4-((E)-2-(5,5-difluoro-7-(thiophen-2-yl)-5H-4λ^4,5λ^4-dipyrrolo[1,2-c:2’,1’-f][1,3,2]diazaborinin-3-yl)vinyl)phenoxy)acetamido)hexanamide] ({Propanoyl(3-Pip(4-O-2-BnPh))}-FAA[βAla]K([Ahx-X1])-NH2) | 10 | 7.98 ± 0.01 |
| Cc1cc(C)n2c1C=C1C=CC(CCC(=O)NCCCCCC(=O)NCCCC[C@H](NC(=O)CCNC(=O)[C@H](C)NC(=O)[C@H](C)NC(=O)[C@H](Cc3ccccc3)NC(=O)CCN3CCC(Oc4ccccc4Cc4ccccc4)CC3)C(N)=O)=[N+]1[B-]2(F)F [Compound 39e, N-((5S,8S,11S,18S)-5-Benzyl-1-(4-(2-benzylphenoxy)piperidin-1-yl)-18-carbamoyl-8,11-dimethyl-3,6,9,12,16-pentaoxo-4,7,10,13,17-pentaazadocosan-22-yl)-6-(3-(5,5-difluoro-7,9-dimethyl-5H-4λ^4,5λ^4-dipyrrolo[1,2-c:2’,1’-f][1,3,2]diazaborinin-3-yl)propanamido)hexanamide] ({Propanoyl(3-Pip(4-O-2-BnPh))}-FAA[βAla]K([Ahx-BODIPY(FL)])-NH2) | 2690 | 5.57 ± 0.05 |
